# Laboratory results: patent US20080058515A1, “Chemical Compounds” (priority 2003, published 2008)
# Target: T1, Serum Glucocorticoid-regulated Kinase-1 (SGK-1) (Homo sapiens, UniProt O00141, S422D)
# T1 construct: a truncated form of the human enzyme that included amino acids 61-431; 6xHis (N); made in house
# T1 sequence (O00141 61-431 S422D): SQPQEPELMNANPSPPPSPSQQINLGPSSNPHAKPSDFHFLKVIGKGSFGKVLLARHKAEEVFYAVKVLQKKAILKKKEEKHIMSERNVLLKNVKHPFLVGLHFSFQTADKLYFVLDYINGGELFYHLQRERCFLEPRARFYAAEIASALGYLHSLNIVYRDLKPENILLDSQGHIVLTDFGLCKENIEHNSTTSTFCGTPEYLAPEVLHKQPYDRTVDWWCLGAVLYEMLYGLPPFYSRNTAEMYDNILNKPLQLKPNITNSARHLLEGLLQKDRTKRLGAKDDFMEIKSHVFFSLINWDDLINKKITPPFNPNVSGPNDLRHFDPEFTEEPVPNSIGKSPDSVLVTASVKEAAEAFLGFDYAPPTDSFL
# Assay: SGK-1 Enzyme Assay (SGK1e), substrate phosphorylation, scintillation proximity
# Assay type: biochemical
# Conditions: truncated human SGK-1 (aa 61-431, S422D), 10 μM ATP, Crosstide substrate
# Method: Compounds of the present invention were tested for Serum Glucocorticoid-regulated Kinase-1 (SGK-1) protein serine/threonine kinase inhibitory activity in substrate phosphorylation assays using enzyme purified from a baculovirus expression vector system. The recombinant baculovirus was made to express the intracellular domain of SGK-1 (GenBank accession number MD41091). The virus expressed a truncated form of the human enzyme that included amino acids 61-431. Serine422 was replaced with Aspartic acid to activate the enzyme, and 6 Histidine residues were added at the amino terminus to facilitate purification. The protein was purified using Ni-NTA agarose affinity chromatography. The peptide substrate was an N-terminal biotinylated sunthetic peptide named Crosstide (biotin-Ahx-GRPRTSSFAEG-OH), corresponding to the sequence in GSK3 surrounding the serine phosphorylated by MAPKAP Kinase-1/Rsk and p70 S6 Kinase.
# The method measures the ability of the isolated enzyme to catalyze the transfer of the γ-phosphate from ATP onto serine/threonine residues in the biotinylated Crosstide. Reactions were performed in 96-well polystyrene round-bottom plates in a final volume of 30 uL. Reaction mixtures contained 62.5 mM HEPES (pH 7.4), 10 mM MgCl2, 0.1 mM EDTA, 0.0024% TWEEN-20, and 1 mM DTT (added fresh daily), 10 μM ATP, 0.2 μCi [[v-^33P] ATP per reaction, 4 μM Crosstide peptide substrate, and 1 nM SGK1 enzyme. Reactions were initiated by adding the indicated enzyme. The reaction was allowed to proceed for 2 hours, then terminated by the addition of 50 mM EDTA and quantified using a scintillation proximity assay procedure as described (McDonald, O. B., Antonsson, B., Arkinstal, S., Marshall, C. J., and Wood, E. R. (1999) Analytical Biochemistry, 268, 318-329).
# Compounds under analysis were dissolved in Me2SO to 1 mM and serially diluted 1 to 3 with Me2SO through eleven columns of a 96 well plate. 1 uL of each concentration was transferred to the corresponding well of the assay plate. This created a final compound concentration range from 0.56 nM to 33.3 uM.
# The data for dose responses were plotted as % Control calculated with the data reduction formula 100*(U1-C2)/(C1-C2) versus concentration of compound and fitted to the curve described by:
# where Vmax is the upper asymptote and K is the IC50
row,IC50,SMILES
1,< 1 µM,"O=C(/C=C/c1n[nH]c2ccccc12)Nc1ccc2ncsc2c1 [Example 1, (2E)-N-(1,3-benzothiazol-6-yl)-3-(1H-indazol-3-yl)-2-propenamide]"
2,< 1 µM,"N#Cc1ccccc1NC(=O)/C=C/c1n[nH]c2ccccc12 [Example 3, (2E)-N-(2-cyanophenyl)-3-(1H-indazol-3-yl)-2-propenamide]"
3,< 1 µM,"O=C(/C=C/c1n[nH]c2ccccc12)Nc1cccc(C(=O)c2ccccc2)c1 [Example 12, (2E)-N-(3-benzoylphenyl)-3-(1H-indazol-3-yl)-2-propenamide]"
4,< 1 µM,"COc1cc(NC(=O)/C=C/c2n[nH]c3ccccc23)ccc1OCCN(C(C)C)C(C)C [Example 15, (2E)-N-[4-[2-(diisopropylamino)ethoxy]-3-methoxyphenyl]-3-(1H-indazol-3-yl)-2-propenamide]"
5,< 1 µM,"CCCN(C)CCOc1ccc(NC(=O)/C=C/c2n[nH]c3ccccc23)cc1OC [Example 19, (2E)-3-(1H-indazol-3-yl)-N-(3-methoxy-4-{2-[methyl(propyl)amino]ethoxy}phenyl)-2-propenamide]"
6,1 to 10 µM,"CC(C)CNC(=O)/C=C/c1n[nH]c2ccccc12 [Example 24, (2E)-3-(1H-indazol-3-yl)-N-isobutylprop-2-enamide]"
7,1 to 10 µM,"CCOC(=O)C1CCN(C(=O)/C=C/c2n[nH]c3ccccc23)CC1 [Example 27, Ethyl 1-[(2E)-3-(1H-indazol-3-yl)prop-2-enoyl]piperidine-4-carboxylate]"
8,< 1 µM,"O=C(/C=C/c1n[nH]c2ccccc12)N1CCC2(CC1)C(=O)NCN2c1ccccc1 [Example 30, 8-[(2E)-3-(1H-indazol-3-yl)prop-2-enoyl]-1-phenyl-1,3,8-triazaspiro[4.5]decan-4-one]"
9,< 1 µM,"O=C(/C=C/c1n[nH]c2ccccc12)Nc1ccc(C(=O)NCCc2cccnc2)cc1 [Example 36, 4-(((2E)-3-(1H-indazol-3-yl)prop-2-enoyl)amino)-N-(2-pyridin-3-ylethyl)benzamide]"
10,< 1 µM,"CCN(Cc1ccncc1)C(=O)c1cccc(NC(=O)/C=C/c2n[nH]c3ccccc23)c1 [Example 41, N-ethyl-3-(((2E)-3-(1H-indazol-3-yl)prop-2-enoyl)amino)-N-(pyridin-4-ylmethyl)benzamide]"
